In ChEMBL document CHEMBL3045456, “Biological Activity of Carpropamid (KTU 3616)” (1997):
Calls of active or inactive are those of the source.

Assays:
Phytophthora nicotianae [1] = test: Antifungal activity against Phytophthora nicotianae var. parasitica assessed as colony color change after 2 to 7 days; type: functional, organism-based
Cytospora ceratosperma [2] = test: Antifungal activity against Valsa ceratosperma assessed as colony color change after 2 to 7 days; type: functional, organism-based
Cytospora ceratosperma [3] = test: Antifungal activity against Valsa ceratosperma assessed as growth inhibition after 2 to 7 days; type: functional; conditions: read-out: ED50 (the source's name)
Colletotrichum lagenaria [4] = test: Antifungal activity against Colletotrichum lagenaria assessed as colony color change after 2 to 7 days; type: functional, organism-based
Pyricularia oryzae [5] = test: Inhibition of spore germination in Magnaporthe oryzae up to 40 ppm after 24 hr; type: functional, organism-based
[6] = system: Pectobacterium carotovorum; test: Antibacterial activity against Pectobacterium carotovorum assessed as growth inhibition after 2 days; type: functional; conditions: 48 h, read-out: ED50 (the source's name)
[7] = system: Pectobacterium carotovorum; test: Antibacterial activity against Pectobacterium carotovorum assessed as colony color change after 2 days; type: functional, organism-based
Pseudomonas [8] = test: Antibacterial activity against Pseudomonas lachrymans assessed as colony color change after 2 days; type: functional, organism-based
Bipolaris oryzae [9] = test: Antifungal activity against Bipolaris oryzae assessed as colony color change after 2 to 7 days; type: functional, organism-based
Pseudomonas [10] = test: Antibacterial activity against Pseudomonas lachrymans assessed as growth inhibition after 2 days; type: functional; conditions: 48 h, read-out: ED50 (the source's name)
Pyricularia oryzae [11] = test: Inhibition of appressorium formation in Magnaporthe oryzae up to 40 ppm after 24 hr; type: functional, organism-based
Penicillium digitatum [12] = test: Antifungal activity against Penicillium digitatum assessed as colony color change after 2 to 7 days; type: functional, organism-based
Fusarium fujikuroi [13] = test: Antifungal activity against Fusarium fujikuroi assessed as growth inhibition after 2 to 7 days; type: functional; conditions: read-out: ED50 (the source's name)
Pyricularia oryzae [14] = test: Antifungal activity against Magnaporthe oryzae assessed as growth inhibition after 2 to 7 days; type: functional; conditions: read-out: ED50 (the source's name)
Verticillium dahliae [15] = test: Antifungal activity against Verticillium dahliae assessed as growth inhibition after 2 to 7 days; type: functional; conditions: read-out: ED50 (the source's name)
Pyricularia grisea [16] = test: Inhibition of Magnaporthe grisea infection of rice plant at 0.01 % sprayed onto inoculated rice seedlings at every 2 hr from 2 to 12 hr after inoculation measured after 8 hr; type: functional, organism-based
[17] = system: Fusarium oxysporum f. sp. lycopersici; test: Antifungal activity against Fusarium oxysporum f. sp. lycopersici assessed as colony colour change after 2 to 7 days; type: functional, organism-based
Verticillium dahliae [18] = test: Antifungal activity against Verticillium dahliae assessed as colony color change after 2 to 7 days; type: functional, organism-based
Pyricularia grisea [19] = test: Inhibition of Magnaporthe grisea infection of rice plant at 0.01 % sprayed onto inoculated rice seedlings at every 2 hr from 2 to 12 hr after inoculation measured after 10 hr; type: functional, organism-based
Pyricularia oryzae [20] = test: Inhibition of dark brown pigmentation formation in appressorium cells of Magnaporthe oryzae at > 0.1 ppm after 24 hr; type: functional, organism-based
Alternaria brassicicola [21] = test: Antifungal activity against Alternaria brassicicola assessed as growth inhibition after 2 to 7 days; type: functional; conditions: read-out: ED50 (the source's name)
Thanatephorus cucumeris [22] = test: Antifungal activity against Thanatephorus cucumeris assessed as colony color change after 2 to 7 days; type: functional, organism-based
Thanatephorus cucumeris [23] = test: Antifungal activity against Thanatephorus cucumeris assessed as growth inhibition after 2 to 7 days; type: functional; conditions: read-out: ED50 (the source's name)
Fusarium fujikuroi [24] = test: Antifungal activity against Fusarium fujikuroi assessed as colony color change after 2 to 7 days; type: functional, organism-based
[25] = system: Botryosphaeria kuwatsukai; test: Antifungal activity against Botryosphaeria berengeriana f.sp. pyricola assessed as growth inhibition after 2 to 7 days; type: functional; conditions: read-out: ED50 (the source's name)
Pythium [26] = test: Antifungal activity against Pythium sp. assessed as growth inhibition after 2 to 7 days; type: functional; conditions: read-out: ED50 (the source's name)
Pythium [27] = test: Antifungal activity against Pythium sp. assessed as colony color change after 2 to 7 days; type: functional, organism-based
Sclerotinia sclerotiorum [28] = test: Antifungal activity against Sclerotinia sclerotiorum assessed as growth inhibition after 2 to 7 days; type: functional; conditions: read-out: ED50 (the source's name)
Nakataea oryzae [29] = test: Antifungal activity against Magnaporthe salvinii assessed as growth inhibition after 2 to 7 days; type: functional; conditions: read-out: ED50 (the source's name)
Sclerotinia sclerotiorum [30] = test: Antifungal activity against Sclerotinia sclerotiorum assessed as colony color change after 2 to 7 days; type: functional, organism-based
Pyricularia grisea [31] = test: Inhibition of Magnaporthe grisea infection of rice plant at 0.01 % sprayed onto inoculated rice seedlings at every 2 hr from 2 to 12 hr after inoculation measured after 6 hr; type: functional, organism-based
Botrytis cinerea [32] = test: Antifungal activity against Botryotinia fuckeliana assessed as colony color change after 2 to 7 days; type: functional, organism-based
Botrytis cinerea [33] = test: Antifungal activity against Botryotinia fuckeliana assessed as growth inhibition after 2 to 7 days; type: functional; conditions: read-out: ED50 (the source's name)
[34] = system: Botryosphaeria kuwatsukai; test: Antifungal activity against Botryosphaeria berengeriana f.sp. pyricola assessed as colony color change after 2 to 7 days; type: functional, organism-based
Bipolaris oryzae [35] = test: Antifungal activity against Bipolaris oryzae assessed as growth inhibition after 2 to 7 days; type: functional; conditions: read-out: ED50 (the source's name)
Nakataea oryzae [36] = test: Antifungal activity against Magnaporthe salvinii assessed as colony color change after 2 to 7 days; type: functional, organism-based
[37] = system: Xanthomonas campestris pv. oryzae; test: Antibacterial activity against Xanthomonas campestris pv. oryzae assessed as colony color change after 2 days; type: functional, organism-based
Colletotrichum lagenaria [38] = test: Antifungal activity against Colletotrichum lagenaria assessed as growth inhibition after 2 to 7 days; type: functional; conditions: read-out: ED50 (the source's name)
[39] = system: Fusarium oxysporum f. sp. lycopersici; test: Antifungal activity against Fusarium oxysporum f. sp. lycopersici assessed as growth inhibition after 2 to 7 days; type: functional; conditions: read-out: ED50 (the source's name)
Penicillium digitatum [40] = test: Antifungal activity against Penicillium digitatum assessed as growth inhibition after 2 to 7 days; type: functional; conditions: read-out: ED50 (the source's name)
Pyricularia oryzae [41] = test: Antifungal activity against Magnaporthe oryzae assessed as colony color change after 2 to 7 days; type: functional, organism-based
Alternaria brassicicola [42] = test: Antifungal activity against Alternaria brassicicola assessed as colony color change after 2 to 7 days; type: functional, organism-based
[43] = system: Xanthomonas campestris pv. oryzae; test: Antibacterial activity against Xanthomonas campestris pv. oryzae assessed as growth inhibition after 2 days; type: functional; conditions: 48 h, read-out: ED50 (the source's name)
Phytophthora nicotianae [44] = test: Antifungal activity against Phytophthora nicotianae var. parasitica assessed as growth inhibition after 2 to 7 days; type: functional; conditions: read-out: ED50 (the source's name)

CC[C@]1(C(=O)N[C@H](C)c2ccc(Cl)cc2)[C@H](C)C1(Cl)Cl (relative stereo) [trans-Carpropamid]
> 200 mg/L: EC50 (Cytospora ceratosperma [3]) | EC50 [6] | EC50 (Pseudomonas [10]) | EC50 (Fusarium fujikuroi [13]) | EC50 (Pyricularia oryzae [14]) | EC50 (Verticillium dahliae [15]) | EC50 (Alternaria brassicicola [21]) | EC50 (Thanatephorus cucumeris [23]) | EC50 [25] | EC50 (Sclerotinia sclerotiorum [28]) | EC50 (Nakataea oryzae [29]) | EC50 (Botrytis cinerea [33]) | EC50 (Bipolaris oryzae [35]) | EC50 (Colletotrichum lagenaria [38]) | EC50 [39] | EC50 (Penicillium digitatum [40]) | EC50 [43]
active: Activity (Cytospora ceratosperma [2]) | Activity (Colletotrichum lagenaria [4]) | Activity (Bipolaris oryzae [9]) | Activity (Verticillium dahliae [18]) | Activity (Thanatephorus cucumeris [22]) | inhibition (Pyricularia grisea [31]) | Activity [34] | Activity (Nakataea oryzae [36]) | Activity (Pyricularia oryzae [41]) | Activity (Alternaria brassicicola [42])
200 mg/L: EC50 (Pythium [26])
50 mg/L: EC50 (Phytophthora nicotianae [44])
inactive: Activity (Phytophthora nicotianae [1]) | inhibition (Pyricularia oryzae [5]) | Activity [7] | Activity (Pseudomonas [8]) | inhibition (Pyricularia oryzae [11]) | Activity (Penicillium digitatum [12]) | inhibition (Pyricularia grisea [16]) | Activity [17] | inhibition (Pyricularia grisea [19]) | inhibition (Pyricularia oryzae [20]) | Activity (Fusarium fujikuroi [24]) | Activity (Pythium [27]) | Activity (Sclerotinia sclerotiorum [30]) | Activity (Botrytis cinerea [32]) | Activity [37]
